Laboratory results as given in paper PMC7933116 (Cell metabolism, 2020).

Molecular target: MCT1 (Homo sapiens, UniProt P53985)
Assay: BCECF fluorescence lactate transport assay in MCT1-expressing BT20 cells
Format: cell-based

Sequence of MCT1 (P53985 whole entry): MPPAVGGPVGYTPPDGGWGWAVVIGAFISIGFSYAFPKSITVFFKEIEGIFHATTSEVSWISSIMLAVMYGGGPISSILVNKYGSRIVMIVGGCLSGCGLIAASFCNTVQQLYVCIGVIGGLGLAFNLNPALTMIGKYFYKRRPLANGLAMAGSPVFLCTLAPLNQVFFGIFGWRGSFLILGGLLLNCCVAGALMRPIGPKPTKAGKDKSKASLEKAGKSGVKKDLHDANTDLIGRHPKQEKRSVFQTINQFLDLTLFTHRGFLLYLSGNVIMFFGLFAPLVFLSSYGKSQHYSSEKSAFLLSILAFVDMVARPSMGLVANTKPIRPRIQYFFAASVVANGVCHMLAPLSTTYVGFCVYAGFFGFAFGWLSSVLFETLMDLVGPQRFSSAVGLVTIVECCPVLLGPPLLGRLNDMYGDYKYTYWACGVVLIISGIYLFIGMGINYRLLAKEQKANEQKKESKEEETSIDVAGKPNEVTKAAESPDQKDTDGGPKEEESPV

CC(C)(OCc1cc(-c2cccc(OC3CC3)c2)n(-c2ccccc2Cl)n1)C(=O)O [VB124, 2-[[1-(2-chlorophenyl)-5-(3-cyclopropoxyphenyl)-1H-pyrazol-3-yl]methoxy]-2-methylpropanoic acid]
IC50: 24 µM
